From ChEMBL document CHEMBL1201862, “PubChem BioAssay data set” (2004)
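In this assay, cells in 96-well plates receive the compound at five concentrations for 48 hours. Endpoints are linearly interpolated between the surrounding concentrations. Abbreviation: GI50, concentration required for 50% inhibition of growth.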 Calls of active or inactive are those of the source. Cut-off read from the data, not from the text of the source: active = GI50 up to about 1.1 µM and inactive = higher.

Legend:
Test in all cases: NCI-60 cell line screen, 48 h
A498 = tested on: A498
BT-549 = tested on: BT-549
CAKI-1 = tested on: CAKI-1
COLO 205 = tested on: COLO 205
HCT-116 = tested on: HCT-116
HL-60 = tested on: HL-60
HOP-92 = tested on: HOP-92
MDA-MB-435 = tested on: MDA-MB-435
Malme-3M = tested on: Malme-3M
NCI-H23 = tested on: NCI-H23
NCI-H460 = tested on: NCI-H460
OVCAR-3 = tested on: OVCAR-3
OVCAR-5 = tested on: OVCAR-5
SF-539 = tested on: SF-539
SK-MEL-2 = tested on: SK-MEL-2
SK-MEL-5 = tested on: SK-MEL-5
SK-OV-3 = tested on: SK-OV-3
SW-620 = tested on: SW-620
UACC-62 = tested on: UACC-62

Row | SMILES | GI50 (A498) | GI50 (BT-549) | GI50 (CAKI-1) | GI50 (COLO 205) | GI50 (HCT-116) | GI50 (HL-60) | GI50 (HOP-92) | GI50 (MDA-MB-435) | GI50 (Malme-3M) | GI50 (NCI-H23) | GI50 (NCI-H460) | GI50 (OVCAR-3) | GI50 (OVCAR-5) | GI50 (SF-539) | GI50 (SK-MEL-2) | GI50 (SK-MEL-5) | GI50 (SK-OV-3) | GI50 (SW-620) | GI50 (UACC-62)
1 | COc1ccc(OCc2nc3cc(C(F)(F)F)ccc3nc2-c2ccccc2)cc1 | 94.8 µM (inactive) | > 100 µM (inactive) | > 100 µM (inactive) | > 100 µM (inactive) | > 100 µM (inactive) | > 100 µM (inactive) | > 100 µM (inactive) | > 100 µM (inactive) | > 100 µM (inactive) | > 100 µM (inactive) | > 100 µM (inactive) | > 100 µM (inactive) | > 100 µM (inactive) | > 100 µM (inactive) | > 100 µM (inactive) | > 100 µM (inactive) | > 100 µM (inactive) | > 100 µM (inactive) | > 100 µM (inactive)
2 | CCCCCCCCCCCC[C@@H](O)[C@H]1CCC([C@H](O)CCCCC(=O)CCCCCCCC2=C[C@H](C)OC2=O)O1 (some centres undefined) | 26.2 µM (inactive) | 9.06 µM (inactive) | > 36.4 µM (inactive) | 12.5 µM (inactive) | 3.01 µM (inactive) | 0.991 µM (active) | > 27 µM (inactive) | > 21.3 µM (inactive) | > 50 µM (inactive) | 0.0957 µM (active) | 2.26 µM (inactive) | > 50 µM (inactive) | > 50 µM (inactive) | > 50 µM (inactive) | > 26.1 µM (inactive) | 0.0315 µM (active) | > 50 µM (inactive) | > 29.1 µM (inactive) | 17.4 µM (inactive)
3 | CCOC(C[Se]CC(OCC)OCC)OCC | > 100 µM (inactive) | 31.8 µM (inactive) | 59.4 µM (inactive) | > 100 µM (inactive) | 32.7 µM (inactive) | 16.8 µM (inactive) | 39.6 µM (inactive) | 36.4 µM (inactive) | 61.5 µM (inactive) | 34.2 µM (inactive) | 65.9 µM (inactive) | > 100 µM (inactive) | 96.6 µM (inactive) | 28.7 µM (inactive) | 48.5 µM (inactive) | 15.7 µM (inactive) | 74.6 µM (inactive) | 85.3 µM (inactive) | 28.4 µM (inactive)
4 | Cc1cccc(N2C(=O)C3ON(C(C(N)=O)c4ccccc4)C(c4c5ccccc5c(Cl)c5ccccc45)C3C2=O)c1C (centres undefined) | 11.9 µM (inactive) | 9.98 µM (inactive) | 9.06 µM (inactive) | 9.42 µM (inactive) | 1.34 µM (inactive) | 4.12 µM (inactive) | 7.89 µM (inactive) | 6.31 µM (inactive) | 11.4 µM (inactive) | 11.6 µM (inactive) | 9.71 µM (inactive) | 8.43 µM (inactive) | 10.3 µM (inactive) | 7.67 µM (inactive) | 9.23 µM (inactive) | 7.03 µM (inactive) | 18.8 µM (inactive) | 3.53 µM (inactive) | 6.84 µM (inactive)
5 | CCOC(=O)NC(Nc1ccc(F)cc1F)(C(F)(F)F)C(F)(F)F | > 100 µM (inactive) | > 100 µM (inactive) | > 100 µM (inactive) | > 100 µM (inactive) | > 100 µM (inactive) | > 100 µM (inactive) | > 100 µM (inactive) | > 100 µM (inactive) | > 100 µM (inactive) | > 100 µM (inactive) | > 100 µM (inactive) | > 100 µM (inactive) | > 100 µM (inactive) | > 100 µM (inactive) | > 100 µM (inactive) | > 100 µM (inactive) | > 100 µM (inactive) | > 100 µM (inactive) | > 100 µM (inactive)
6 | C=C1CC[C@@H](C)[C@](C)(CCc2ccoc2)C/C=C\C=C/1C(=O)O | 58.6 µM (inactive) | 19.5 µM (inactive) | 31.6 µM (inactive) | 21 µM (inactive) | 21.8 µM (inactive) | 16.5 µM (inactive) | 62.2 µM (inactive) | 37.6 µM (inactive) | 33.4 µM (inactive) | 50.4 µM (inactive) | 30.2 µM (inactive) | 19.3 µM (inactive) | > 100 µM (inactive) | 19.6 µM (inactive) | 19.1 µM (inactive) | 39.6 µM (inactive) | 69.2 µM (inactive) | 32.8 µM (inactive) | 31.2 µM (inactive)
